{"source": "patent EP0415776A2", "about": "“Indolobenzoquinoline derivatives, their preparation and their use as anti-arrhythmic drugs” (Sankyo Company Limited, priority 1989, dated 1991)", "tested_on": "arrhythmias caused by myocardial ischemia in dogs", "assay": "arrhythmias caused by myocardial ischemia in dogs (glass bead injected into left coronary artery)", "assay_type": "in vivo, Male Beagles", "description": "Male Beagles weighing 8 - 12 kg were anesthetized with sodium pentobarbital (30 mg/kg i.v.). The animal was placed in a supine position, and the left carotid artery was isolated from the surrounding tissue. A metal cannula was then introduced from the left carotid artery and its tip was placed at the coronary orifice. A glass bead having a diameter of 1.7 mm was injected through the metal cannula into the left coronary artery. The glass bead injection produced a ST segment elevation, which was followed by ventricular arrhythmias due to myocardial infarction.\nThe dog was used in a conscious state for 24 hours after myocardial ischemia developed, when the arrythmic ratio exceeded 70%. The arrhythmic ratio was calculated by dividing the number of arrhythmias by the total heart beats in one minute.\nFigures 1 and 2 of the accompanying drawings show the course of the arrhythmias with time following a single intravenous administration of the compound of Example 1 and its racemate, respectively.", "note": "Where a name gives a salt, the structure may show the parent alone."}
{"smiles": "N[C@@H]1Cc2c3n(c4cccc(O)c24)C(=O)C[C@H]2CCC[C@@H]1[C@@H]32", "note": "[Example 1, (3aR,4R,12aR,12bS) 4-Amino-2,3,3a,4,5,12,12a,12b-octahydro-6-hydroxyindolo[3,2,1,-ij]benz[de]quinolin-11-(1 H)-one hydrochloride sesquihydrate]", "values": [{"measurement": "suppressing arrhythmias, compared with racemate", "setting": "Example 1 at 2.5 mg/kg i.v. versus racemate at 5.0 mg/kg i.v.", "result": "almost comparable with its racemate at 5.0 mg/kg i.v."}, {"measurement": "potency in anti-arrhythmic action relative to racemate", "setting": "single i.v. administration, dogs, inferred from 2.5 mg/kg vs 5.0 mg/kg", "result": "about twice"}, {"measurement": "number of arrhythmias per minute", "setting": "single intravenous administration, conscious dog 24 hours after myocardial ischemia developed, course with time, Figures 1 and 2", "result": "decreased the number of arrhythmias per minute"}]}
